# Read-outs that look alike come from different tables or passages of the source.
# Experiments:
# [1] = target: T1, SIK2 (Homo sapiens, UniProt Q9H0K1); experiment: ADP-Glo kinase assay, SIK2; type: biochemical
# T1 construct: purchased ThermoFisher Scientific PV4792
# How it was run: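 ADP-Glo format, luminescent. Room-temperature kinase reaction lasting 120 min, followed by ATP removal (40 min) and ADP detection (30 min); 10 μM staurosporine serves as full-inhibition control, 1% DMSO as uninhibited control.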
# [2] = tested on: LPS-induced TNFα in monocyte-derived macrophages; experiment: MdM assay: LPS-triggered TNFα (ELISA); type: cell-based, human
# How it was run: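 TNFα secretion quantified by streptavidin-HRP/luminol sandwich ELISA in supernatants collected 20 h after LPS (200 ng/mL). Macrophages derived from magnetically isolated human CD14+ monocytes were used at day 10, with compound added 1 h before LPS; final DMSO 0.2%.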
# [3] = Macrophage, human MdM, LPS 200 ng/mL, supernatant after 20 h, inhibition of TNFα, read-out: TNFα EC50
# [4] = ADP-Glo, AMARA 45 μM, 5 μM ATP, 120 min, average IC50
# [5] = human MdM, LPS 200 ng/mL, supernatant after 20 h, inhibition of TNFα, read-out: TNFα EC50
# [6] = Homo sapiens, Macrophage, 20 h, read-out: TNFα EC50 (nM)
# T1 sequence (Q9H0K1 whole entry): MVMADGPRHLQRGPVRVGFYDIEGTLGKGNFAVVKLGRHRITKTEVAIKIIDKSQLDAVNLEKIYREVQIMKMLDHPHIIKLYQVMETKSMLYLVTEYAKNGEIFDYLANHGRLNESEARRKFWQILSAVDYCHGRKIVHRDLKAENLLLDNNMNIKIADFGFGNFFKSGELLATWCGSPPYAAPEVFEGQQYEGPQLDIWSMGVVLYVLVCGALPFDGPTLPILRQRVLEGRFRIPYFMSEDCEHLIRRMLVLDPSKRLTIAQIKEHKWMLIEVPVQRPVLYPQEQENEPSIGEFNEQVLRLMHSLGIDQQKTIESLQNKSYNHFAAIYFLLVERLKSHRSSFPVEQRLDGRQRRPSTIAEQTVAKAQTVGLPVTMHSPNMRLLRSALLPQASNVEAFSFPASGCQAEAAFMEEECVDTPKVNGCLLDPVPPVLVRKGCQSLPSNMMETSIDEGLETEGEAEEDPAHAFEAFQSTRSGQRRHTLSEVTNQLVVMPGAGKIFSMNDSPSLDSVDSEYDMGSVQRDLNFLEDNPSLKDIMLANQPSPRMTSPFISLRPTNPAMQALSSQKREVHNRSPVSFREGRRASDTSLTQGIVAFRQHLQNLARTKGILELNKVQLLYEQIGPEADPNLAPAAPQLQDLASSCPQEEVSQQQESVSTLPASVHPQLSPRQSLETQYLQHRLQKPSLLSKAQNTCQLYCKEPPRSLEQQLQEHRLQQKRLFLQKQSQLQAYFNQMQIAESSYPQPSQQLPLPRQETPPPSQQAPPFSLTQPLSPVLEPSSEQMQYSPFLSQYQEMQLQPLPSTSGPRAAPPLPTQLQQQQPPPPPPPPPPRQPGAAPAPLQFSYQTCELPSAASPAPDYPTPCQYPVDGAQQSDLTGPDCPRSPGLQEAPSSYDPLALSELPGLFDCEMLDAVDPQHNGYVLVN
IC50 [1],"EC50 [2, 3]",SMILES,other results
> 500 nM,100 to 1000 nM,"COc1cc(-c2cnc3cc([C@@](C)(O)C4CC4)ccn23)cc(OC(F)F)c1C(=O)NC1CC1 (single isomer, unassigned) [Cpd 162, N-cyclopropyl-4-[7-(1-cyclopropyl-1-hydroxy-ethyl)imidazo[1,2-a]pyridin-3-yl]-2-(difluoromethoxy)-6-methoxy-benzamide]",–
–,–,"COc1cc(-c2cnc3cc([C@@](C)(O)C4CC4)ccn23)cc(OC(F)F)c1C(=O)NC1CC1 (single isomer, unassigned) [Cpd 163, N-cyclopropyl-4-[7-(1-cyclopropyl-1-hydroxy-ethyl)imidazo[1,2-a]pyridin-3-yl]-2-(difluoromethoxy)-6-methoxy-benzamide]","IC50 [1, 4]: > 500 nM; EC50 [2, 5]: 100 to 1000 nM"
> 500 nM,100 to 1000 nM,"CC[C@](C)(O)c1ccn2c(-c3cc(OC)c(C(=O)NC4CC4)c(OC(F)F)c3)cnc2c1 (single isomer, unassigned) [Cpd 164, N-cyclopropyl-2-(difluoromethoxy)-4-[7-(1-hydroxy-1-methyl-propyl)imidazo[1,2-a]pyridin-3-yl]-6-methoxy-benzamide]",–
–,–,"CC[C@](C)(O)c1ccn2c(-c3cc(OC)c(C(=O)NC4CC4)c(OC(F)F)c3)cnc2c1 (single isomer, unassigned) [Cpd 165, N-cyclopropyl-2-(difluoromethoxy)-4-[7-(1-hydroxy-1-methyl-propyl)imidazo[1,2-a]pyridin-3-yl]-6-methoxy-benzamide]","IC50 [1, 4]: > 500 nM; EC50 [2, 5]: 100 to 1000 nM"
> 500 nM,1000 to 5000 nM,"COc1cc(-c2cnc3cc([C@@](C)(C#N)CO)ccn23)cc(OC(F)F)c1C(=O)NC1CC1 (single isomer, unassigned) [Cpd 189, 4-[7-(1-cyano-2-hydroxy-1-methyl-ethyl)imidazo[1,2-a]pyridin-3-yl]-N-cyclopropyl-2-(difluoromethoxy)-6-methoxy-benzamide]",–
–,–,"COc1cc(-c2cnc3cc([C@@](C)(C#N)CO)ccn23)cc(OC(F)F)c1C(=O)NC1CC1 (single isomer, unassigned) [Cpd 190, 4-[7-(1-cyano-2-hydroxy-1-methyl-ethyl)imidazo[1,2-a]pyridin-3-yl]-N-cyclopropyl-2-(difluoromethoxy)-6-methoxy-benzamide]","IC50 [1, 4]: > 500 nM; EC50 [2, 5]: 1000 to 5000 nM"
–,–,"COc1cc(-c2cnn3cc(C(C)(C)C#N)ccc23)cc(OC(F)F)c1C(=O)N[C@@H]1C[C@H]1F (single isomer, unassigned) [Cpd 257, 4-[6-(1-cyano-1-methyl-ethyl)pyrazolo[1,5-a]pyridin-3-yl]-2-(difluoromethoxy)-N-(2-fluorocyclopropyl)-6-methoxy-benzamide]","EC50 [2, 6]: 100 to 1000 nM"
–,–,"COc1cc(-c2cnn3cc(C(C)(C)C#N)ccc23)cc(OC(F)F)c1C(=O)N[C@@H]1C[C@H]1F (single isomer, unassigned) [Cpd 258, 4-[6-(1-cyano-1-methyl-ethyl)pyrazolo[1,5-a]pyridin-3-yl]-2-(difluoromethoxy)-N-(2-fluorocyclopropyl)-6-methoxy-benzamide]","EC50 ([2]; read-out: TNFα EC50, human MdM, LPS 200 ng/mL, supernatant after 20 h, inhibition of TNFα): 100 to 1000 nM"
> 500 nM,100 to 1000 nM,"CCC(C)(C#N)c1ccn2c(-c3cc(OC)c(C(=O)NC4CC4)c(OC(F)F)c3)cnc2c1 (centres unmarked) [Cpd 27, 4-[7-(1-cyano-1-methyl-propyl)imidazo[1,2-a]pyridin-3-yl]-N-cyclopropyl-2-(difluoromethoxy)-6-methoxy-benzamide]",–
> 500 nM,100 to 1000 nM,"COc1cc(-c2cnc3cc(C(C)(C)C#N)ccn23)cc(OC)c1C(=O)NC1CC1 [Cpd 28, 4-[7-(1-cyano-1-methyl-ethyl)imidazo[1,2-a]pyridin-3-yl]-N-cyclopropyl-2,6-dimethoxy-benzamide]",–
10 to 100 nM,100 to 1000 nM,"COc1cc(-c2cnc3cc(C4(C#N)CC4)ccn23)cc(OC(F)F)c1C(=O)NC1CC1 [Cpd 33, 4-[7-(1-cyanocyclopropyl)imidazo[1,2-a]pyridin-3-yl]-N-cyclopropyl-2-(difluoromethoxy)-6-methoxy-benzamide]",–
> 500 nM,100 to 1000 nM,"COc1cc(-c2cnc3cc(C(C)(C)O)ccn23)cc(OC(F)F)c1C(=O)NC1CC1 [Cpd 35, N-cyclopropyl-2-(difluoromethoxy)-4-[7-(1-hydroxy-1-methyl-ethyl)imidazo[1,2-a]pyridin-3-yl]-6-methoxy-benzamide]",–
> 500 nM,100 to 1000 nM,"COc1cc(-c2cnc3cc(C(C)(C)C#N)ccn23)cc(OC(F)F)c1C(=O)NCC1CC1 [Cpd 39, 4-[7-(1-cyano-1-methyl-ethyl)imidazo[1,2-a]pyridin-3-yl]-N-(cyclopropylmethyl)-2-(difluoromethoxy)-6-methoxy-benzamide]",–
10 to 100 nM,1000 to 5000 nM,"COc1cc(-c2cnc3cc(C4CN(C(C)=O)C4)ccn23)cc(OC(F)F)c1C(=O)NC1CC1 [Cpd 63, 4-[7-(1-acetylazetidin-3-yl)imidazo[1,2-a]pyridin-3-yl]-N-cyclopropyl-2-(difluoromethoxy)-6-methoxy-benzamide]",–
100 to 500 nM,100 to 1000 nM,"COc1cc(-c2cnc3cc(C4CCCN(C(=O)OC(C)(C)C)C4)ccn23)cc(OC(F)F)c1C(=O)NC1CC1 (centres unmarked) [Cpd 64, tert-butyl 3-[3-[4-(cyclopropylcarbamoyl)-3-(difluoromethoxy)-5-methoxy-phenyl]imidazo[1,2-a]pyridin-7-yl]piperidine-1-carboxylate]",–
> 500 nM,100 to 1000 nM,"COc1cc(-c2cnc3cc(C(C)(C)C#N)ccn23)cc(OC(F)F)c1C(=O)N1CC(F)(F)C1 [Cpd 69, 2-[3-[4-(3,3-difluoroazetidine-1-carbonyl)-3-(difluoromethoxy)-5-methoxy-phenyl]imidazo[1,2-a]pyridin-7-yl]-2-methyl-propanenitrile]",–
> 500 nM,100 to 1000 nM,"COc1cc(-c2cnc3cc(C(C)(C)C#N)ccn23)cc(OC(F)F)c1C(=O)NCC(F)F [Cpd 70, 4-[7-(1-cyano-1-methyl-ethyl)imidazo[1,2-a]pyridin-3-yl]-N-(2,2-difluoroethyl)-2-(difluoromethoxy)-6-methoxy-benzamide]",–
> 500 nM,100 to 1000 nM,"COc1cc(-c2cnc3cc(C(C)(C)C#N)ccn23)cc(OC(F)F)c1C(=O)N1CC(C#N)C1 [Cpd 77, 1-[4-[7-(1-cyano-1-methyl-ethyl)imidazo[1,2-a]pyridin-3-yl]-2-(difluoromethoxy)-6-methoxy-benzoyl]azetidine-3-carbonitrile]",–
100 to 500 nM,100 to 1000 nM,"COc1cc(-c2cnc3cc(C(C)(C)C#N)ccn23)cc(OC(F)F)c1C(=O)N[C@@H]1C[C@@H]1F [Cpd 79, 4-[7-(1-cyano-1-methyl-ethyl)imidazo[1,2-a]pyridin-3-yl]-2-(difluoromethoxy)-N-[(1R,2S)-2-fluorocyclopropyl]-6-methoxy-benzamide]",–
> 500 nM,1000 to 5000 nM,"COc1cc(-c2cnc3cc(C(C)(C)CN)ccn23)cc(OC(F)F)c1C(=O)NC1CC1 [Cpd 93, 4-[7-(2-amino-1,1-dimethyl-ethyl)imidazo[1,2-a]pyridin-3-yl]-N-cyclopropyl-2-(difluoromethoxy)-6-methoxy-benzamide]",–
100 to 500 nM,1000 to 5000 nM,"COc1cc(-c2cnn3cc(C4CCOCC4)cnc23)cc(OC(F)F)c1C(=O)NC1CC1 [Cpd 95, N-cyclopropyl-2-(difluoromethoxy)-6-methoxy-4-(6-tetrahydropyran-4-ylpyrazolo[1,5-a]pyrimidin-3-yl)benzamide]",–
> 500 nM,100 to 1000 nM,"COc1cc(-c2cnc3cc(C(C)(C)C#N)ccn23)cc(OC(F)F)c1C(=O)N1CC(F)C1 [Cpd 96, 2-[3-[3-(difluoromethoxy)-4-(3-fluoroazetidine-1-carbonyl)-5-methoxy-phenyl]imidazo[1,2-a]pyridin-7-yl]-2-methyl-propanenitrile]",–
> 500 nM,100 to 1000 nM,"COc1cc(-c2cnc3cc(C(C)(C)N)ccn23)cc(OC(F)F)c1C(=O)NC1CC1 [Cpd 106, 4-[7-(1-amino-1-methyl-ethyl)imidazo[1,2-a]pyridin-3-yl]-N-cyclopropyl-2-(difluoromethoxy)-6-methoxy-benzamide]",–
> 500 nM,1000 to 5000 nM,"COc1cc(-c2cnc3cc(C4(C#N)CCOCC4)ccn23)cc(OC)c1C(=O)NCC(F)(F)F [Cpd 107, 4-[7-(4-cyanotetrahydropyran-4-yl)imidazo[1,2-a]pyridin-3-yl]-2,6-dimethoxy-N-(2,2,2-trifluoroethyl)benzamide]",–
–,–,"COc1cc(-c2cnn3cc(C(C)(C)C#N)ccc23)cc(OC(F)F)c1C(=O)N[C@@H]1C[C@@H]1F [Cpd 219, 4-[6-(1-cyano-1-methyl-ethyl)pyrazolo[1,5-a]pyridin-3-yl]-2-(difluoromethoxy)-N-[(1R,2S)-2-fluorocyclopropyl]-6-methoxy-benzamide]","EC50 [2, 6]: 100 to 1000 nM"
–,–,"[2H]C([2H])([2H])C(C#N)(c1ccc2c(-c3cc(OC)c(C(=O)N[C@@H]4C[C@@H]4F)c(OC(F)F)c3)cnn2c1)C([2H])([2H])[2H] [Cpd 275, 4-[6-[1-cyano-2,2,2-trideuterio-1-(trideuteriomethyl)ethyl]pyrazolo[1,5-a]pyridin-3-yl]-2-(difluoromethoxy)-N-[(1R,2S)-2-fluorocyclopropyl]-6-methoxy-benzamide]","EC50 [2, 6]: 100 to 1000 nM"

SMILES,IC50 [1],"EC50 [2, 3]",other results
"COc1cc(-c2cnc3cc(C(C)(C)C#N)ccn23)cc(OC(F)F)c1C(=O)NC1CC1 [Cpd 19, 4-[7-(1-cyano-1-methyl-ethyl)imidazo[1,2-a]pyridin-3-yl]-N-cyclopropyl-2-(difluoromethoxy)-6-methoxy-benzamide]",> 500 nM,100 to 1000 nM,–

# From patent publication US12391679B2, “Benzamide-substituted bicyclic imidazo- and pyrazolo-fused -pyridine, -pyrimide, and -pyridazine compounds for treatment of inflammatory diseases” (ONCO3R Therapeutics BV, priority 2019, dated 2025)
